Measured values published in US20090226398A1, “ANTI-VIRAL COMPOUNDS, COMPOSITIONS, AND METHODS OF USE” (Genelabs Technologies, Inc., priority 2008, published 2009).
pEC50: −log10 of the molar value.

Tested on: HCV replication
Assay: Replicon Assay (Huh-lucubineo-ET cells, luciferase readout)
Assay type: cell-based
Conditions: Hepatitis C virus; ET (Huh-lucubineo-ET) HCV replicon cell line; luciferase activity 48-72 hours after compound addition; 6 dilutions
Protocol: A cell line, ET (Huh-lucubineo-ET) was used for screening of compounds of the present invention for inhibition of HCV replication. The ET cell line was stably transfected with RNA transcripts harboring a I389luc-ubi-neo/NS3-3′/ET; replicon with firefly luciferase-ubiquitin-neomycin phosphotransferase fusion protein and EMCV-IRES driven NS3-5B polyprotein containing the cell culture adaptive mutations (E1202G; T1280I; K1846T) (Krieger at al, 2001 and unpublished). The ET cells were grown in DMEM, supplemented with 10% fetal calf serum, 2 mM Glutamine, Penicillin (100 IU/mL)/Streptomycin (100 μg/mL), 1× nonessential amino acids, and 250 μg/mL G418 (“Geneticin”). They were all available through Life Technologies (Bethesda, Md.). The cells were plated at 0.5−1.0×10^4 cells/well in the 96 well plates and incubated for 24 hrs before adding the test compounds. The compounds were then added to the cells to achieve a final concentration of 5 or 50 μM. Luciferase activity was measured 48-72 hours later by adding a lysis buffer and the substrate (Catalog number Glo-lysis buffer E2661 and Bright-Glo luciferase system E2620 Promega, Madison, Wis.). Cells should not be too confluent during the assay. Percent inhibition of replication was plotted relative to no compound control. For EC50 (effective concentration at which 50% of the maximum inhibition is observed) determinations, 6 dilutions of each compound were used. Compounds were typically diluted 3 fold to span a concentration range of 250 fold. EC50 and similarly TC50 values were calculated by fitting % inhibition at each concentration to the following equation:
% inhibition=100%/[(EC50/[I])^b+1]
where b is Hill's coefficient.

Point of comparison: Fc1cccc(-c2nc3cnn(Cc4ccc(-c5ccc(-c6ccccc6)cc5C(F)(F)F)nn4)cc-3n2)c1F [Compound 205, 2-(2,3-Difluoro-phenyl)-5-[6-(3-trifluoromethyl-biphenyl-4-yl)-pyridazin-3-ylmethyl]-5H-imidazo[4,5-d]pyridazine], pEC50 6.85. Against it:
- Fc1ccccc1-c1nc2cnn(Cc3ccc(OC(F)(F)F)cc3)cc-2n1 [Compound 101, 2-(2-Fluoro-phenyl)-5-(4-trifluoromethoxy-benzyl)-5H-imidazo[4,5-d]pyridazine] — lower, ≤ 4.30
- Fc1ccccc1-c1nc2cnn(Cc3ccc(Cl)cc3)cc-2n1 [Compound 102, 5-(4-Chloro-benzyl)-2-(2-fluoro-phenyl)-5H-imidazo[4,5-d]pyridazine] — lower, ≤ 4.30
- Fc1cccc(-c2nc3cnn(Cc4ccc(-c5ccc(C(F)(F)F)cc5C(F)(F)F)nn4)cc-3n2)c1F [Compound 104, 5-[6-(2,4-Bis-trifluoromethyl-phenyl)-pyridazin-3-ylmethyl]-2-(2,3-difluoro-phenyl)-5H-imidazo[4,5-d]pyridazine] — 0.37 log units higher, 7.22
- COc1ccc(-c2ccc(Cn3cc4nc(-c5cccc(F)c5F)nc-4cn3)nn2)cc1 [Compound 105, 2-(2,3-Difluoro-phenyl)-5-[6-(4-methoxy-phenyl)-pyridazin-3-ylmethyl]-5H-imidazo[4,5-d]pyridazine] — 1.72 log units lower, 5.13
- CCCOc1ccc(-c2ccc(Cn3cc4nc(-c5cccc(F)c5F)nc-4cn3)cc2)cc1 [Compound 109, 2-(2,3-Difluoro-phenyl)-5-(4′-propoxy-biphenyl-4-ylmethyl)-5H-imidazo[4,5-d]pyridazine] — 2.33 log units lower, 4.52
- CCCCc1ccc(-c2ccc(Cn3cc4nc(-c5cccc(F)c5F)nc-4cn3)nn2)cc1 [Compound 115, 5-[6-(4-Butyl-phenyl)-pyridazin-3-ylmethyl]-2-(2,3-difluoro-phenyl)-5H-imidazo[4,5-d]pyridazine] — 1.02 log units lower, 5.83
- Fc1cccc(-c2nc3cnn(Cc4ccc(-c5ccc(C(F)(F)F)cc5)nn4)cc-3n2)c1F [Compound 116, 2-(2,3-Difluoro-phenyl)-5-[6-(4-trifluoromethyl-phenyl)-pyridazin-3-ylmethyl]-5H-imidazo[4,5-d]pyridazine] — lower, ≤ 4.30
- Fc1cccc(-c2nc3cnn(Cc4ccc(-c5ccc(OC(F)(F)F)cc5)nn4)cc-3n2)c1F [Compound 119, 2-(2,3-Difluoro-phenyl)-5-[6-(4-trifluoromethoxy-phenyl)-pyridazin-3-ylmethyl]-5H-imidazo[4,5-d]pyridazine] — 1.34 log units lower, 5.51
- Fc1cccc(-c2nc3cnn(Cc4ccc(-c5ccc(C(F)(F)F)cc5C(F)(F)F)cn4)cc-3n2)c1F [Compound 129, 5-[5-(2,4-Bis-trifluoromethyl-phenyl)-pyridin-2-ylmethyl]-2-(2,3-difluoro-phenyl)-5H-imidazo[4,5-d]pyridazine] — 0.87 log units higher, 7.72
- Fc1cccc(-c2nc3cnn(Cc4ccc(-c5ccc(C(F)(F)F)cc5C(F)(F)F)nc4)cc-3n2)c1F [Compound 130, 5-[6-(2,4-Bis-trifluoromethyl-phenyl)-pyridin-3-ylmethyl]-2-(2,3-difluoro-phenyl)-5H-imidazo[4,5-d]pyridazine] — 1.25 log units higher, 8.10
- COc1ccc(-c2ccc(Cn3cc4nc(-c5cccc(F)c5F)nc-4cn3)c([N+](=O)[O-])c2)c(C(F)(F)F)c1 [Compound 201, 2-(2,3-Difluoro-phenyl)-5-(4-methoxy-3-nitro-2-trifluoromethyl-biphenyl-4-ylmethyl)-5H-imidazo[4,5-d]pyridazine] — 0.45 log units higher, 7.30
- COc1cccc(-c2ccc(Cn3cc4nc(-c5cccc(F)c5F)nc-4cn3)nn2)c1OC [Compound 202, 2-(2,3-Difluoro-phenyl)-5-[6-(2,3-dimethoxy-phenyl)-pyridazin-3-ylmethyl]-5H-imidazo[4,5-d]pyridazine] — lower, ≤ 4.30
- Fc1cccc(-c2nc3cnn(Cc4ccc(-c5ccc(-c6cn[nH]c6)cc5C(F)(F)F)nn4)cc-3n2)c1F [Compound 203, 2-(2,3-Difluoro-phenyl)-5-{6-[4-(1H-pyrazol-4-yl)-2-trifluoromethyl-phenyl]-pyridazin-3-ylmethyl}-5H-imidazo[4,5-d]pyridazine] — 2.17 log units lower, 4.68
- Fc1cccc(-c2nc3cnn(Cc4ccc(-c5ccc(-c6cccnc6)cc5C(F)(F)F)nn4)cc-3n2)c1F [Compound 204, 2-(2,3-Difluoro-phenyl)-5-[6-(4-pyridin-3-yl-2-trifluoromethyl-phenyl)-pyridazin-3-ylmethyl]-5H-imidazo[4,5-d]pyridazine] — 0.67 log units lower, 6.18
- CCc1ccc(-c2ccc(Cn3cc4nc(-c5cccc(F)c5F)nc-4cn3)nn2)cc1 [Compound 206, 2-(2,3-Difluoro-phenyl)-5-[6-(4-ethyl-phenyl)-pyridazin-3-ylmethyl]-5H-imidazo[4,5-d]pyridazine] — lower, ≤ 4.30
- COc1ccc(-c2ccc(Cn3cc4nc(-c5cccc(F)c5F)nc-4cn3)nn2)c(OC)c1 [Compound 207, 2-(2,3-Difluoro-phenyl)-5-[6-(2,4-dimethoxy-phenyl)-pyridazin-3-ylmethyl]-5H-imidazo[4,5-d]pyridazine] — lower, ≤ 4.30
- CC(C)Cc1ccc(-c2ccc(Cn3cc4nc(-c5cccc(F)c5F)nc-4cn3)nn2)cc1 [Compound 208, 2-(2,3-Difluoro-phenyl)-5-[6-(4-isobutyl-phenyl)-pyridazin-3-ylmethyl]-5H-imidazo[4,5-d]pyridazine] — lower, ≤ 4.30
- CC(C)Oc1ccc(-c2ccc(Cn3cc4nc(-c5cccc(F)c5F)nc-4cn3)nn2)cc1 [Compound 209, 2-(2,3-Difluoro-phenyl)-5-[6-(4-isopropoxy-phenyl)-pyridazin-3-ylmethyl]-5H-imidazo[4,5-d]pyridazine] — lower, ≤ 4.30
- Fc1cccc(-c2nc3cnn(Cc4ccc(-c5ccc(-c6ccncc6)cc5C(F)(F)F)nn4)cc-3n2)c1F [Compound 210, 2-(2,3-Difluoro-phenyl)-5-[6-(4-pyridin-4-yl-2-trifluoromethyl-phenyl)-pyridazin-3-ylmethyl]-5H-imidazo[4,5-d]pyridazine] — 0.72 log units lower, 6.13
- Cc1ccc(-c2ccc(Cn3cc4nc(-c5cccc(F)c5F)nc-4cn3)nn2)cc1 [Compound 211, 2-(2,3-Difluoro-phenyl)-5-(6-p-tolyl-pyridazin-3-ylmethyl)-5H-imidazo[4,5-d]pyridazine] — 1.39 log units lower, 5.46
- COc1ccc(-c2ccc(Cn3cc4nc(-c5ccccc5F)nc-4cn3)cn2)c(C(F)(F)F)c1 [Compound 212, 2-(2-Fluoro-phenyl)-5-[6-(4-methoxy-2-trifluoromethyl-phenyl)-pyridin-3-ylmethyl]-5H-imidazo[4,5-d]pyridazine] — 0.24 log units higher, 7.09
- COCc1ccc(-c2ccc(Cn3cc4nc(-c5cccc(F)c5F)nc-4cn3)nn2)cc1 [Compound 213, 2-(2,3-Difluoro-phenyl)-5-[6-(4-methoxymethyl-phenyl)-pyridazin-3-ylmethyl]-5H-imidazo[4,5-d]pyridazine] — lower, ≤ 4.30
- CC(C)(C)OCc1ccc(-c2ccc(Cn3cc4nc(-c5cccc(F)c5F)nc-4cn3)nn2)cc1 [Compound 214, 5-[6-(4-tert-Butoxymethyl-phenyl)-pyridazin-3-ylmethyl]-2-(2,3-difluoro-phenyl)-5H-imidazo[4,5-d]pyridazine] — 2.53 log units lower, 4.32
- CC(C)(C)c1ccc(-c2ccc(Cn3cc4nc(-c5cccc(F)c5F)nc-4cn3)nn2)cc1 [Compound 215, 5-[6-(4-tert-Butyl-phenyl)-pyridazin-3-ylmethyl]-2-(2,3-difluoro-phenyl)-5H-imidazo[4,5-d]pyridazine] — 1.91 log units lower, 4.94
